Laboratory results taken from patent US20030199571A1, “(Hetero) Bicyclymethanesulfonylamino-substituted hydroxamic acid derivatives” (priority 1999, published 2003).
pIC50: −log10 of the molar value.

Target: T1, human recombinant collagenase (Homo sapiens, UniProt P03956)
T1 construct: made in house; host or cells: E. coli
T1 sequence (P03956 100-469): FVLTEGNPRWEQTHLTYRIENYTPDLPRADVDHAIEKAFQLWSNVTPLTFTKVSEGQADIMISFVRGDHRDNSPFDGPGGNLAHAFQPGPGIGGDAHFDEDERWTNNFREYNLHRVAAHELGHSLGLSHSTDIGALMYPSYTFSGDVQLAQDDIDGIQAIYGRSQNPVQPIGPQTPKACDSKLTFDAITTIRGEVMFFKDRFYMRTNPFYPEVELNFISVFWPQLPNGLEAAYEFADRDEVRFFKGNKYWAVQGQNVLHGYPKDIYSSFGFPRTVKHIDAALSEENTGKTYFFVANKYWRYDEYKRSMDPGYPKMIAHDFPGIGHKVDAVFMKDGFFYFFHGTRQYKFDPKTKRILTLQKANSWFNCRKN
Assay: Collagenase inhibition assay (Cawston and Barrett)
Format: biochemical
Settings: acetylated 3H type 1 bovine collagen, 37° C., 18 h
Experimental: Procedure 2: The ability of test compounds to inhibit collagenase was investigated using the following procedure.
Collagenase Inhibition Assay:
The potency of compounds to act as inhibitors of collagenase was determined by the method of Cawston and Barrett (Anal. Biochem. 99, 340-345, 1979), hereby incorporated by reference, whereby a 1 mM solution of the inhibitor being tested or dilutions thereof, was incubated at 37° C. for 18 h with collagen and human recombinant collagenase, from synovial fibroblasts cloned, expressed and purified from E. coli, (buffered with 150 mM Tris, pH 7.6, containing 15 mM calcium chloride, 0.05% Brij 35, 200 mM sodium chloride and 0.02% sodium azide). The collagen was acetylated ^3H type 1 bovine collagen prepared by the method of Cawston and Murphy (methods in Enzymology 80, 711,1981) The samples were centrifuged to sediment undigested collagen and an aliquot of the radioactive supernatant removed for assay on a scintillation counter as a measure of hydrolysis. The collagenase activity in the presence of 1 mM inhibitor, or dilution thereof, was compared to activity in a control devoid of inhibitor and the results reported as that concentration effecting 50% of the collagenase (IC50).

pIC50 | Structure (SMILES)
≤ 5.00 | O=C(NO)[C@@H](CCc1ccccc1)NS(=O)(=O)Cc1ccc2sccc2c1 [Example 38, (R)-2-(Benzo[b]thiophen-5-ylmethanesulfonylamino)-N-hydroxy-4-phenyl-butyramide]
≤ 5.00 | O=C(NO)[C@H](NS(=O)(=O)Cc1ccc2sccc2c1)c1ccc(O)cc1 [Example 33]
≤ 5.00 | O=C(NO)[C@@H](CC1CCCCC1)NS(=O)(=O)Cc1ccc2ccccc2c1 [Example 9]
≤ 5.00 | CC(C)(C)C[C@@H](NS(=O)(=O)Cc1ccc2sccc2c1)C(=O)NO [Example 42]
≤ 5.00 | O=C(NO)[C@@H](CNS(=O)(=O)Cc1ccccc1)NS(=O)(=O)Cc1ccc2sccc2c1 [Example 69, (R)-2-(Benzo[b]thiophen-5-ylmethanesulfonylamino)-N-hydroxy-3-(phenylmethanesulfonylamino)-propionamide]
≤ 5.00 | CC(C)c1ccc([C@@H](NS(=O)(=O)Cc2ccc3sccc3c2)C(=O)NO)cc1 [Example 56, (R)-2-(Benzo[b]thiophen-5-ylmethanesulfonylamino)-2-(4-isopropylphenyl)-N-hydroxy-acetamide]
≤ 5.00 | O=C(NO)[C@H](NS(=O)(=O)Cc1ccc2sccc2c1)c1ccccc1 [Example 28, (R)-2-(Benzo[b]thiophen-5-ylmethanesulfonylamino)-N-hydroxy-2-phenylacetamide]
≤ 5.00 | O=C(NO)[C@@H](Cc1ccccc1)NS(=O)(=O)Cc1ccc2ccccc2c1 [Example 5]
≤ 5.00 | CC(C)(C)[C@@H](NS(=O)(=O)Cc1ccc2sccc2c1)C(=O)NO [Example 43]
≤ 5.00 | O=C(NO)[C@@H](Cc1csc2ccccc12)NS(=O)(=O)Cc1ccc2ccccc2c1 [Example 14]
≤ 5.00 | CC(C)(C)C[C@@H](NS(=O)(=O)Cc1ccc2ccccc2c1)C(=O)NO [Example 6]
≤ 5.00 | O=C(NO)[C@H](NS(=O)(=O)C[C@@H]1CCc2ccccc2C1)c1ccccc1 [Example 29, (R)-2-Phenyl-2-[(R)-1-(1,2,3,4-tetrahydronaphthalen-2-yl)methanesulfonylamino]-N-hydroxyacetamide]
≤ 5.00 | O=C(NO)[C@@H](Cc1c[nH]c2ccccc12)NS(=O)(=O)Cc1ccc2sccc2c1 [Example 31, (R)-2-(Benzo[b]thiophen-5-ylmethanesulfonylamino)-N-hydroxy-3-(1H-indol-3-yl) propionamide.]
≤ 5.00 | O=C(NO)[C@H](NS(=O)(=O)Cc1ccc2ccccc2c1)c1ccc(O)cc1 [Example 12]
